Measured values taken from ChEMBL document CHEMBL3045426, “Synthesis, Antiviral and Antibacterial Activities of Isatin Mannich Bases” (Med Chem Res, 2005).
Values after ≈ are worked out from the molar mass of the structure shown.

Assays:
[1] = Selectivity index, ratio of CC50 for human MT4 cells to EC50 for HIV1 3B infected in MT4 cells; type: toxicity, cell-based; conditions: read-out: Ratio CC50/EC50
Vibrio cholerae [2] = experiment: Antimicrobial activity against Vibrio cholerae 01 after 18 to 20 hr by agar dilution method; type: functional; conditions: 1
Priestia megaterium = experiment: Antimicrobial activity against Bacillus megaterium after 18 to 20 hr by agar dilution method; type: functional
Enterobacter = experiment: Antimicrobial activity against Enterobacter after 18 to 20 hr by agar dilution method; type: functional
Citrobacter freundii = experiment: Antimicrobial activity against Citrobacter freundii after 18 to 20 hr by agar dilution method; type: functional
Salmonella enteritidis = experiment: Antimicrobial activity against Salmonella enterica subsp. enterica serovar Enteritidis after 18 to 20 hr by agar dilution method; type: functional
Salmonella typhimurium = experiment: Antimicrobial activity against Salmonella enterica subsp. enterica serovar Typhimurium after 18 to 20 hr by agar dilution method; type: functional
Proteus mirabilis = experiment: Antimicrobial activity against Proteus mirabilis after 18 to 20 hr by agar dilution method; type: functional
Proteus vulgaris = experiment: Antimicrobial activity against Proteus vulgaris after 18 to 20 hr by agar dilution method; type: functional
Edwardsiella tarda = experiment: Antimicrobial activity against Edwardsiella tarda after 18 to 20 hr by agar dilution method; type: functional
Escherichia coli = experiment: Antimicrobial activity against Escherichia coli NCTC 10418 after 18 to 20 hr by agar dilution method; type: functional
Salmonella typhi = experiment: Antimicrobial activity against Salmonella enterica subsp. enterica serovar Typhi after 18 to 20 hr by agar dilution method; type: functional
Salmonella paratyphi = experiment: Antimicrobial activity against Salmonella enterica subsp. enterica serovar Paratyphi A after 18 to 20 hr by agar dilution method; type: functional
Vibrio parahaemolyticus = experiment: Antimicrobial activity against Vibrio parahaemolyticus after 18 to 20 hr by agar dilution method; type: functional
Vibrio cholerae [3] = experiment: Antimicrobial activity against Vibrio cholerae 0139 after 18 to 20 hr by agar dilution method; type: functional; conditions: 139
Vibrio fluvialis = experiment: Antimicrobial activity against Vibrio fluvialis after 18 to 20 hr by agar dilution method; type: functional
Vibrio mimicus = experiment: Antimicrobial activity against Vibrio mimicus after 18 to 20 hr by agar dilution method; type: functional
Pseudomonas aeruginosa = experiment: Antimicrobial activity against Pseudomonas aeruginosa after 18 to 20 hr by agar dilution method; type: functional
Staphylococcus aureus = experiment: Antimicrobial activity against Staphylococcus aureus after 18 to 20 hr by agar dilution method; type: functional
Morganella morganii = experiment: Antimicrobial activity against Morganella morganii after 18 to 20 hr by agar dilution method; type: functional
Shigella boydii = experiment: Antimicrobial activity against Shigella boydii after 18 to 20 hr by agar dilution method; type: functional
Plesiomonas = experiment: Antimicrobial activity against Plesiomonas after 18 to 20 hr by agar dilution method; type: functional
Shigella sonnei = experiment: Antimicrobial activity against Shigella sonnei after 18 to 20 hr by agar dilution method; type: functional
Klebsiella pneumoniae [4] = experiment: Antimicrobial activity against Klebsiella pneumoniae after 18 to 20 hr by agar dilution method; type: functional
Klebsiella pneumoniae [5] = experiment: Antimicrobial activity against Klebsiella pneumoniae subsp. ozaenae after 18 to 20 hr by agar dilution method; type: functional
[6] = system: Mycobacterium tuberculosis; experiment: Antimycobacterial activity against Mycobacterium tuberculosis H37Rv ATCC 27294 at 6.25 ug/ml by MABA; type: functional
[7] = Cytotoxicity against Homo sapiens (human) HuH7 cells assessed as cell growth at 50 ug/ml after 3 days by Neutral red assay; type: cell-based, Huh-7; conditions: read-out: Activity
[8] = Cytotoxicity against Homo sapiens (human) CEM cells after 5 days by MTT assay; type: cell-based; conditions: CEM cells (CCRF-CEM)
[9] = system: Human immunodeficiency virus 1; experiment: Antiviral activity against Human immunodeficiency virus 1 IIIB infected CEM cells assessed as protection against viral infection after 6 days by XTT assay; type: functional, CCRF-CEM; design: concentration or dose not given beside the values
[10] = system: Human immunodeficiency virus 1; experiment: Antiviral activity against Human immunodeficiency virus 1 IIIB infected CEM cells assessed as inhibition of virus-induced cytopathicity after 6 days by XTT assay; type: functional, organism-based; conditions: CCRF-CEM, 144 h
[11] = Cytotoxicity against Homo sapiens (human) MT4 cells after 5 days by MTT assay; type: cell-based
[12] = system: Human immunodeficiency virus 1; experiment: Antiviral activity against Human immunodeficiency virus 1 IIIB infected MT4 cells assessed as inhibition of virus-induced cytopathicity after 5 days by MTT assay; type: functional, organism-based; conditions: MT4, 120 h
Hepatitis C virus = experiment: Antiviral activity against Hepatitis C virus BM4-5 infected in Huh7 cells assessed as inhibition of viral RNA replication by phosphor screening method; type: functional, Hepacivirus hominis, Huh-7
[13] = system: Human immunodeficiency virus 1; experiment: Antiviral activity against Human immunodeficiency virus 1 IIIB infected MT4 cells assessed as protection against viral infection after 5 days by MTT assay; type: functional; design: concentration or dose not given beside the values

Compound `COc1cc(Cc2cnc(/N=C3\C(=O)N(CN4CCN(c5ccc(F)cc5)CC4)c4ccc(Cl)cc43)nc2N)cc(OC)c1OC` has a selectivity ratio [1] of 3, an MIC (Vibrio cholerae [2]) of 4.88 µg/mL (≈ 7.55 µM) and an MIC (Priestia megaterium) of 625 µg/mL (≈ 967 µM). For the same compound, the MIC (Enterobacter) was 625 µg/mL (≈ 967 µM), the MIC (Citrobacter freundii) was 625 µg/mL (≈ 967 µM) and the MIC (Salmonella enteritidis) was 625 µg/mL (≈ 967 µM). It also gave an MIC (Salmonella typhimurium) of 625 µg/mL (≈ 967 µM), an MIC (Proteus mirabilis) of 625 µg/mL (≈ 967 µM) and an MIC (Proteus vulgaris) of 625 µg/mL (≈ 967 µM). It also gave an MIC (Edwardsiella tarda) of 625 µg/mL (≈ 967 µM), an MIC (Escherichia coli) of 625 µg/mL (≈ 967 µM) and an MIC (Salmonella typhi) of 625 µg/mL (≈ 967 µM). The MIC (Salmonella paratyphi) was 312 µg/mL (≈ 484 µM), the MIC (Vibrio parahaemolyticus) was 39.1 µg/mL (≈ 60.5 µM) and the MIC (Vibrio cholerae [3]) was 625 µg/mL (≈ 967 µM). The MIC (Vibrio fluvialis) was 1250 µg/mL (≈ 1930 µM), the MIC (Vibrio mimicus) was 4.88 µg/mL (≈ 7.55 µM) and the MIC (Pseudomonas aeruginosa) was 1250 µg/mL (≈ 1930 µM). The MIC (Staphylococcus aureus) was 625 µg/mL (≈ 967 µM), the MIC (Morganella morganii) was 625 µg/mL (≈ 967 µM) and the MIC (Shigella boydii) was 19.5 µg/mL (≈ 30.2 µM). The MIC (Plesiomonas) was 9.76 µg/mL (≈ 15.1 µM), the MIC (Shigella sonnei) was 1250 µg/mL (≈ 1930 µM) and the MIC (Klebsiella pneumoniae [4]) was 1250 µg/mL (≈ 1930 µM). The MIC (Klebsiella pneumoniae [5]) was 625 µg/mL (≈ 967 µM), the inhibition at 6.25 µg/mL [6] was 35% and the viability at 72 h, 50 ug/ml [7] was 64%. For the same compound, the CC50 at 120 h [8] was 71 µg/mL (≈ 110 µM), the Activity [9] was 22.98% and the EC50 [10] was > 71 µg/mL. The CC50 at 120 h [11] was 65.6 µg/mL (≈ 102 µM), the EC50 [12] was 56.1 µg/mL (≈ 86.8 µM) and the “inhibition (INH)” value (Hepatitis C virus) was 80%. It also gave an Activity [13] of 59.6%.
Compound `CCN(CC)CN1C(=O)/C(=N\c2ncc(Cc3cc(OC)c(OC)c(OC)c3)c(N)n2)c2cc(Cl)ccc21` has a selectivity ratio [1] of 3, an MIC (Vibrio cholerae [2]) of 1.22 µg/mL (≈ 2.26 µM) and an MIC (Priestia megaterium) of 1250 µg/mL (≈ 2320 µM). The MIC (Enterobacter) was 312 µg/mL (≈ 580 µM), the MIC (Citrobacter freundii) was 312 µg/mL (≈ 580 µM) and the MIC (Salmonella enteritidis) was 625 µg/mL (≈ 1160 µM). For the same compound, the MIC (Salmonella typhimurium) was 312 µg/mL (≈ 580 µM), the MIC (Proteus mirabilis) was 312 µg/mL (≈ 580 µM) and the MIC (Proteus vulgaris) was 625 µg/mL (≈ 1160 µM). For the same compound, the MIC (Edwardsiella tarda) was 1250 µg/mL (≈ 2320 µM), the MIC (Escherichia coli) was 1250 µg/mL (≈ 2320 µM) and the MIC (Salmonella typhi) was 1250 µg/mL (≈ 2320 µM). It also gave an MIC (Salmonella paratyphi) of 78.1 µg/mL (≈ 145 µM), an MIC (Vibrio parahaemolyticus) of 39.1 µg/mL (≈ 72.5 µM) and an MIC (Vibrio cholerae [3]) of 312 µg/mL (≈ 580 µM). The MIC (Vibrio fluvialis) was 625 µg/mL (≈ 1160 µM), the MIC (Vibrio mimicus) was 9.76 µg/mL (≈ 18.1 µM) and the MIC (Pseudomonas aeruginosa) was 1250 µg/mL (≈ 2320 µM). The MIC (Staphylococcus aureus) was 625 µg/mL (≈ 1160 µM), the MIC (Morganella morganii) was 625 µg/mL (≈ 1160 µM) and the MIC (Shigella boydii) was 39.1 µg/mL (≈ 72.5 µM). The MIC (Plesiomonas) was 19.5 µg/mL (≈ 36.2 µM), the MIC (Shigella sonnei) was 1250 µg/mL (≈ 2320 µM) and the MIC (Klebsiella pneumoniae [4]) was 1250 µg/mL (≈ 2320 µM). It also gave an MIC (Klebsiella pneumoniae [5]) of 625 µg/mL (≈ 1160 µM), an inhibition at 6.25 µg/mL [6] of 53% and a viability at 72 h, 50 ug/ml [7] of 72%. The CC50 at 120 h [8] was 98.4 µg/mL (≈ 183 µM), the Activity [9] was 20.69% and the EC50 [10] was > 98.4 µg/mL. The CC50 at 120 h [11] was 79.1 µg/mL (≈ 147 µM), the EC50 [12] was 23.6 µg/mL (≈ 43.8 µM) and the “inhibition (INH)” value (Hepatitis C virus) was 67%. For the same compound, the Activity [13] was 64.1%.
